Data as given in DBAASP.
≈ marks a conversion by molar mass, not a printed value. Where “and” joins values, the source holds several entries; their conditions need not be identical. Equal entries are not always repeated. Blank lines part the entries; values can stand above or below the molecule they belong to.

Tests used:
Assay in all cases: ≥ marks a high value that may be exact or a test limit, other limits are often not marked, values filed in µg/mL are converted to µM
[1] = test system: Acinetobacter baumannii Josh 230
[2] = test system: Acinetobacter baumannii Josh 28
[3] = test system: Enterobacter asburiae St. L P23
[4] = test system: Enterobacter cloacae BB2012-181
[5] = test system: Enterobacter cloacae BB2013-32
[6] = test system: Enterobacter cloacae St. L P23
[7] = test system: Escherichia coli ARLG-1012
[8] = test system: Escherichia coli ATCC 25922
[9] = test system: Escherichia coli BB2013-30
Escherichia coli BW25113 = test system: Escherichia coli BW25113
Escherichia coli JW55034 = test system: Escherichia coli JW55034
[10] = test system: Klebsiella aerogenes St. L P63
[11] = test system: Klebsiella pneumoniae BB2009-209
[12] = test system: Klebsiella pneumoniae J3702
[13] = test system: Klebsiella pneumoniae Oschner KP-1
[14] = test system: Pseudomonas aeruginosa ATCC 27853
[15] = test system: Pseudomonas aeruginosa BB2013-100
[16] = test system: Pseudomonas aeruginosa J4228
Escherichia coli J2210 = test system: Escherichia coli J2210
Escherichia coli JJ2489 = test system: Escherichia coli JJ2489
Escherichia coli JW0013 = test system: Escherichia coli JW0013
[17] = test system: Escherichia coli JW0368 ΔsbmA
[18] = test system: Escherichia coli JW2778 ΔygdD
Escherichia coli MC1041 = test system: Escherichia coli MC1041
Escherichia coli = test system: Escherichia coli
[19] = test system: Salmonella enterica serovar Tennessee
[20] = test system: Salmonella enterica subsp. enterica serovar Enteritidis MH91989
[21] = test system: Salmonella enterica subsp. enterica serovar Infantis
[22] = test system: Salmonella enterica subsp. enterica serovar Newport
[23] = test system: Salmonella typhimurium SL1344
[24] = test system: Candida albicans ATCC 10231
[25] = test system: Cryptococcus neoformans ATCC 32045
[26] = test system: Escherichia coli ATCC 2592
[27] = test system: Pseudomonas aeruginosa ATCC 10145
[28] = test system: Staphylococcus aureus ATCC 33591
[29] = test system: Acinetobacter baumannii b-01
[30] = test system: Acinetobacter baumannii b-02
[31] = test system: Acinetobacter baumannii b-03
[32] = test system: Acinetobacter baumannii b-04
[33] = test system: Bacillus pumilus CMCC 63202
Bacillus subtilis DB430 = test system: Bacillus subtilis DB430
[34] = test system: Escherichia coli ATCC 8099
[35] = test system: Klebsiella pneumoniae CMCC 46117
Klebsiella pneumoniae = test system: Klebsiella pneumoniae
[36] = test system: Micrococcus luteus CMCC 28001
Micrococcus sp. S1.634 = test system: Micrococcus sp. S1.634
[37] = test system: Pseudomonas aeruginosa CMCC 10104
Pseudomonas aeruginosa = test system: Pseudomonas aeruginosa
[38] = test system: Salmonella enterica subsp. enterica serovar Paratyphi B CMCC 50094
[39] = test system: Staphylococcus aureus CMCC 26003
Staphylococcus aureus = test system: Staphylococcus aureus
[40] = test system: Staphylococcus epidermidis

MIC [1]: 10.9 µM (≈ 16 µg/mL) | MIC [2]: 2.72 µM (≈ 4 µg/mL) | MIC [3]: 21.8 µM (≈ 32 µg/mL) | MIC [4]: 10.9 µM (≈ 16 µg/mL) | MIC [5]: 10.9 µM (≈ 16 µg/mL) | MIC [6]: 21.8 µM (≈ 32 µg/mL) | MIC [7]: 2.72 µM (≈ 4 µg/mL) | MIC [8]: 12 µM and 24.1 µM | MIC [9]: 5.44 µM (≈ 7.99 µg/mL) | MIC (Escherichia coli BW25113): 2.72 µM (≈ 4 µg/mL) | MIC (Escherichia coli JW55034): 2.72 µM (≈ 4 µg/mL) | MIC [10]: 10.9 µM (≈ 16 µg/mL) | MIC [11]: 21.8 µM (≈ 32 µg/mL) | MIC [12]: 10.9 µM (≈ 16 µg/mL) | MIC [13]: 21.8 µM (≈ 32 µg/mL) | MIC [14]: 5.44 µM (≈ 7.99 µg/mL) | MIC [15]: 21.8 µM (≈ 32 µg/mL) | MIC [16]: 10.9 µM (≈ 16 µg/mL)
SMILES: CC[C@H](C)[C@H](NC(=O)[C@H](CCCCN)NC(=O)[C@H](CCCCN)NC(=O)[C@@H](NC(=O)[C@H](C)NC(=O)[C@H](CCCCN)NC(=O)[C@@H](NC(=O)[C@@H](NC(=O)[C@H](CC(C)C)NC(=O)[C@H](CCCCN)NC(=O)[C@H](C)NC(=O)[C@H](Cc1c[nH]c2ccccc12)NC(=O)CN)[C@@H](C)CC)[C@@H](C)O)[C@@H](C)CC)C(N)=O [GWAKLITKAIKKI]

MIC (Escherichia coli J2210): 0.034 µM (≈ 0.0722 µg/mL) | MIC (Escherichia coli JJ2489): 0.034 µM (≈ 0.0722 µg/mL) | MIC (Escherichia coli JW0013): 0.012 µM (≈ 0.0255 µg/mL) | MIC [17]: 0.096 µM (≈ 0.204 µg/mL) | MIC [18]: 0.024 µM (≈ 0.051 µg/mL) | MIC (Escherichia coli MC1041): 0.024 µM (≈ 0.051 µg/mL) | MIC (Escherichia coli): 0.048 µM (≈ 0.102 µg/mL) | MIC [19]: 0.024 µM (≈ 0.051 µg/mL) | MIC [20]: 0.031 µM (≈ 0.0658 µg/mL) | MIC [21]: 0.024 µM (≈ 0.051 µg/mL) | MIC [22]: 0.017 µM (≈ 0.0361 µg/mL) | MIC [23]: 0.034 µM (≈ 0.0722 µg/mL)
SMILES: CC(C)C[C@H](NC(=O)[C@H](CCCN=C(N)N)NC(=O)[C@@H]1CCCN1C(=O)[C@H](Cc1cnc[nH]1)NC(=O)[C@@H]1CCCN1C(=O)[C@@H]1CCCN1C(=O)[C@H](CCCN=C(N)N)NC(=O)[C@@H]1CCCN1C(=O)[C@H](CCC(N)=O)NC(=O)[C@@H]1CCCN1C(=O)[C@H](CCCN=C(N)N)NC(=O)[C@H](Cc1ccc(O)cc1)NC(=O)[C@@H](NC(=O)[C@@H]1CCCN1C(=O)[C@H](CCCCN)NC(=O)[C@H](CC(N)=O)NC(=O)[C@H](CC(N)=O)NC(=O)CN)C(C)C)C(=O)O [GNNKPVYRPQPRPPHPRL]

MIC [24]: 54.5 µM (≈ 177 µg/mL) | MIC [25]: 15.3 µM (≈ 49.8 µg/mL) | MIC [26]: 13.7 µM (≈ 44.5 µg/mL) | MIC [27]: ≥ 77 µM | MIC [28]: ≥ 77 µM
SMILES: NCCCC[C@H](NC(=O)[C@H](Cc1ccccc1)NC(=O)[C@H](CCCCN)NC(=O)[C@H](CCCCN)NC(=O)[C@H](Cc1ccccc1)NC(=O)[C@H](CCCCN)NC(=O)[C@H](CCCCN)NC(=O)[C@H](Cc1ccccc1)NC(=O)[C@H](CCCCN)NC(=O)[C@H](CCCCN)NC(=O)[C@H](Cc1ccccc1)NC(=O)[C@H](CCCCN)NC(=O)[C@H](CCCCN)NC(=O)[C@H](Cc1ccccc1)NC(=O)[C@H](CCCCN)NC(=O)[C@H](CCCCN)NC(=O)[C@H](Cc1ccccc1)NC(=O)[C@H](CCCCN)NC(=O)[C@H](CCCCN)NC(=O)[C@H](Cc1ccccc1)NC(=O)[C@H](CCCCN)NC(=O)[C@H](CCCCN)NC(=O)[C@H](Cc1ccccc1)NC(=O)[C@@H](N)CCCCN)C(=O)O [KFKKFKKFKKFKKFKKFKKFKKFK]

MIC [29]: 0.321 µM (≈ 0.8 µg/mL) | MIC [30]: 1.25 µM (≈ 3.12 µg/mL) | MIC [31]: 1.3 µM (≈ 3.25 µg/mL) | MIC [32]: 0.641 µM (≈ 1.6 µg/mL) | MIC [33]: 0.201 µM (≈ 0.5 µg/mL) | MIC (Bacillus subtilis DB430): 0.802 µM (≈ 2 µg/mL) | MIC [34]: 0.201 µM (≈ 0.5 µg/mL) | MIC [35]: 0.802 µM (≈ 2 µg/mL) | MIC (Klebsiella pneumoniae): 0.567 µM (≈ 1.41 µg/mL) | MIC [36]: 0.802 µM (≈ 2 µg/mL) | MIC (Micrococcus sp. S1.634): 0.401 µM (≈ 1 µg/mL) | MIC [37]: 1.6 µM (≈ 4 µg/mL) | MIC (Pseudomonas aeruginosa): 0.641 µM and 1.13 µM | MIC [38]: 0.802 µM (≈ 2 µg/mL) | MIC [39]: 0.201 µM (≈ 0.5 µg/mL) | MIC (Staphylococcus aureus): 0.401 µM (≈ 1 µg/mL) | MIC [40]: 0.802 µM (≈ 2 µg/mL)
SMILES: CC[C@H](C)[C@H](NC(=O)[C@H](Cc1ccccc1)NC(=O)[C@H](CO)NC(=O)[C@H](CCCCN)NC(=O)[C@H](Cc1c[nH]c2ccccc12)NC(=O)[C@@H](N)CCCCN)C(=O)N[C@@H](CCCCN)C(=O)N[C@@H](CCCCN)C(=O)N[C@@H](CC(C)C)C(=O)N[C@H](C(=O)N[C@@H](CCCCN)C(=O)N[C@@H](CCCCN)C(=O)N[C@@H](Cc1ccccc1)C(=O)N[C@@H](CC(C)C)C(=O)N[C@@H](Cc1cnc[nH]1)C(=O)N[C@@H](CO)C(=O)N[C@@H](C)C(=O)N[C@@H](CCCCN)C(=O)N[C@@H](CCCCN)C(=O)N[C@@H](Cc1ccccc1)C(N)=O)[C@@H](C)O [KWKSFIKKLTKKFLHSAKKF]
